Read-outs that look alike come from different tables or passages of the source.
Tests used:
Assay type in all cases: in vivo
[1] = test system: Plasmopara vilicola (the causal agent of grape downy mildew); assay: Test A: grape downy mildew, test suspension sprayed on grape seedlings after inoculation, visual disease rating; settings: for pest or weed control at 10 µg/mL: Plasmopara, 144 h, read-out: Percent Disease Control, Test A
Text: General protocol for preparing test suspensions for Test A-C: The test compounds were first dissolved in acetone in an amount equal to 3% of the final volume and then suspended at the desired concentration (in ppm) in acetone and purified water (50/50 mix by volume) containing 250 ppm of the surfactant Trem® 014 (polyhydric alcohol esters). The resulting test suspensions were then used in Tests A-C. Spraying a 200 ppm test suspension to the point of run-off on the test plants was equivalent to a rate of 500 g/ha.
Grape seedlings were inoculated with a spore suspension of Plasmopara vilicola (the causal agent of grape downy mildew) and incubated in a saturated atmosphere at 20° C. for 24 h. After a short drying period, the test suspension was sprayed to the point of run-off on the grape seedlings, which were then moved to a growth chamber at 20° C. for 5 days, after which time the grape seedling were placed back into a saturated atmosphere at 20° C. for 24 h. Upon removal, visual disease ratings were made.
Results for Tests A-C are given in Table A. In the table, a rating of 100 indicates 100% disease control and a rating of 0 indicates no disease control (relative to the controls). A dash (-) indicates no test results.

[2] = test system: Phytophthora infestans (the causal agent of tomato late blight); assay: whole plant or invertebrate; settings: for pest or weed control at 10 µg/mL: Phytophthora infestans, 96 h, read-out: Percent Disease Control, Test C
[3] = test system: Phytophthora infestans (the causal agent of tomato late blight); assay: whole plant or invertebrate; settings: for pest or weed control at 10 µg/mL: Phytophthora infestans, 144 h, read-out: Percent Disease Control, Test B
[4] = compounds without asterisk (application rate not given), 100 = 100% disease control, 0 = no control relative to the controls

Structure (SMILES)	Percent Disease Control, Test A ([1]; * tested at 40 ppm)	Percent Disease Control, Test C ([2]; * tested at 40 ppm)	Percent Disease Control, Test B ([3]; * tested at 40 ppm)	other results
C[C@]1(c2ccccc2)CC(c2csc(C3CCN(C(=O)Cn4nc(C(F)(F)F)cc4Cl)CC3)n2)=NO1 (racemic) [Compound 261, 2-[5-chloro-3-(trifluoromethyl)-1H-pyrazol-1-yl]-1-[4-[4-[(5R)-4,5-dihydro-5-methyl-5-phenyl-3-isoxazolyl]-2-thiazolyl]-1-piperidinyl]ethanone]				pest or weed control at 10 µg/mL ([1]; ** tested at l0 ppm): 100%; pest or weed control at 10 µg/mL [2]: 93%; pest or weed control at 10 µg/mL [3]: 100%
Cc1cc(C(F)(F)F)nn1CC(=O)N1CCC(c2nc(C3=NO[C@@](C#N)(c4ccccc4)C3)cs2)CC1 (racemic) [Compound 265, (5R)-4,5-dihydro-3-[2-[1-[2-[5-methyl-3-(trifluoromethyl)-1H-pyrazol-1-yl]acetyl]-4-piperidinyl]-4-thiazolyl]-5-phenyl-5-isoxazolecarbonitrile]				pest or weed control at 10 µg/mL ([1]; ** tested at l0 ppm): 100%; pest or weed control at 10 µg/mL [2]: 98%; pest or weed control at 10 µg/mL [3]: 100%
Cc1cc(C(F)(F)F)nn1CC(=O)N1CCC(c2nc(C3=NOC(c4ccccc4)C3)cs2)CC1 (single isomer, unassigned) [Compound 4]				Percent Disease Control, Test A ([1]; ** tested at l0 ppm): 100%; Percent Disease Control, Test C ([2]; ** tested at l0 ppm): 99%; Percent Disease Control, Test B ([3]; ** tested at l0 ppm): 100%
Cc1cc(C(F)(F)F)nn1CC(=O)N1CCC(c2nc(C3=NOC4(CCC(c5ccccc5)C4)C3)cs2)CC1 (single isomer, unassigned) [Compound 157]	100%	94%	100%	
Cc1cc(C(F)(F)F)nn1CC(=O)N1CCC(c2nc(C3=NOC4(CCC(c5ccccc5)C4)C3)cs2)CC1 (single isomer, unassigned) [Compound 158]				Percent Disease Control, Test A [1, 4]: 96%; Percent Disease Control, Test C [2, 4]: 99%; Percent Disease Control, Test B [3, 4]: 100%
Cc1cc(C(F)(F)F)nn1CC(=O)N1CCC(c2nc(C3=NOC4(COC(c5ccccc5)OC4)C3)cs2)CC1 (single isomer, unassigned) [Compound 175]				Percent Disease Control, Test A [1, 4]: 68%; Percent Disease Control, Test C [2, 4]: 33%; Percent Disease Control, Test B [3, 4]: 100%
Cc1cc(C(F)(F)F)nn1CC(=O)N1CCC(c2nc(C3=NOC4(COC(c5ccccc5)OC4)C3)cs2)CC1 (single isomer, unassigned) [Compound 176]				Percent Disease Control, Test A [1, 4]: 68%; Percent Disease Control, Test C [2, 4]: 63%; Percent Disease Control, Test B [3, 4]: 100%
Cc1cc(C(F)(F)F)nn1CC(=O)N1CCC(c2nc(C3=NOC4(CCC(C)(c5ccccc5)CC4)C3)cs2)CC1 (single isomer, unassigned) [Compound 186]	95%	86%	100%	
Cc1cc(C(F)(F)F)nn1CC(=O)N1CCC(c2nc(C3=NOC4(CCC(C)(c5ccccc5)CC4)C3)cs2)CC1 (single isomer, unassigned) [Compound 187]	99%	93%	100%	
Cc1cc(C(F)(F)F)nn1CC(=O)N1CCC(c2nc(C3=NOC4(CCCC(C#N)C4)C3)cs2)CC1 (single isomer, unassigned) [Compound 253]	100%	95%	100%	
Cc1cc(C(F)(F)F)nn1CC(=O)N1CCC(c2nc(C3=NOC4(CCCC(C#N)C4)C3)cs2)CC1 (single isomer, unassigned) [Compound 254]	100%	93%	100%	
Cc1cc(C(F)(F)F)nn1CC(=O)N1CCC(c2nc(C3=NOC4(CCC(C#N)CC4)C3)cs2)CC1 (single isomer, unassigned) [Compound 255]	95%	93%	100%	
Cc1cc(C(F)(F)F)nn1CC(=O)N1CCC(c2nc(C3=NOC4(CCC(C#N)CC4)C3)cs2)CC1 (single isomer, unassigned) [Compound 256]	100%	99%	100%	

Reference: patent US9920030B2 (priority 2006, dated 2018)
